Experimental data from ChEMBL document CHEMBL3399970, “Synthesis of novel pleuromutilin derivatives. Part 1: preliminary studies of antituberculosis activity” (2015).
Converted amounts (≈) assume the structure as drawn.

Each compound was assayed on Mycobacterium tuberculosis (assay: Antimycobacterial activity against Mycobacterium tuberculosis H37Rv assessed as inhibition at 20 uM).
Type: functional

Point of comparison: `C=C[C@]1(C)C[C@@H](OC(=O)CN(Cc2ccccc2)Cc2ccc(Oc3ccccc3)cc2)[C@]2(C)[C@H](C)CC[C@]3(CCC(=O)[C@H]32)[C@@H](C)[C@@H]1O`, inhibition at 20 µM 101%. Against it:
- C=C[C@]1(C)C[C@@H](OC(=O)CN(CC)Cc2ccc(Oc3ccccc3)cc2)[C@]2(C)[C@H](C)CC[C@]3(CCC(=O)[C@H]32)[C@@H](C)[C@@H]1O — lower, 100%
- C=C[C@]1(C)C[C@@H](OC(=O)CN(Cc2ccc(Oc3ccccc3)cc2)C2CCCCC2)[C@]2(C)[C@H](C)CC[C@]3(CCC(=O)[C@H]32)[C@@H](C)[C@@H]1O — lower, 88%
- C=C[C@]1(C)C[C@@H](OC(=O)CN(N2CCCCC2)S(=O)(=O)c2ccc(N)cc2)[C@]2(C)[C@H](C)CC[C@]3(CCC(=O)[C@H]32)[C@@H](C)[C@@H]1O — lower, 60%
- C=C[C@]1(C)C[C@@H](OC(=O)CN(CC)Cc2ccccc2)[C@]2(C)[C@H](C)CC[C@]3(CCC(=O)[C@H]32)[C@@H](C)[C@@H]1O — lower, 100%
- C=C[C@]1(C)C[C@@H](OC(=O)CN(CC)Cc2cccc(C)c2)[C@]2(C)[C@H](C)CC[C@]3(CCC(=O)[C@H]32)[C@@H](C)[C@@H]1O — lower, 16%
- C=C[C@]1(C)C[C@@H](OC(=O)CN(CC)Cc2cccc(Cl)c2)[C@]2(C)[C@H](C)CC[C@]3(CCC(=O)[C@H]32)[C@@H](C)[C@@H]1O — lower, 99%
- C=C[C@]1(C)C[C@@H](OC(=O)CN(CC)Cc2ccc(N(CC)CC)cc2)[C@]2(C)[C@H](C)CC[C@]3(CCC(=O)[C@H]32)[C@@H](C)[C@@H]1O — lower, 99%

Each compound was assayed on Mycobacterium tuberculosis (assay: Antimycobacterial activity against Mycobacterium tuberculosis H37Rv assessed as complete inhibition of proliferation).
Type: functional

Compound `C=C[C@]1(C)C[C@@H](OC(=O)CN(CC)Cc2ccc(N(CC)CC)cc2)[C@]2(C)[C@H](C)CC[C@]3(CCC(=O)[C@H]32)[C@@H](C)[C@@H]1O` has an MIC of 7.2 µM (≈ 4.08 µg/mL).
